The source of these data is patent US6642247B2 (priority 1998, dated 2003).

Bounds are passed on as bounds.

As a reminder, the melting point is the temperature of the solid-liquid transition. Compound `COC1CCN(c2ccccc2)C12CCN([C@H]1CC[C@@H](C(C)C)CC1)CC2.Cl` (mixture of isomers) showed a melting point of 214 to 215 °C.

In turn, `O=C(O)/C=C/C(=O)O.O=C1CCN(c2ccccc2)C12CCN(C1C[C@H]3CCCC[C@H]3C1)CC2` (stereo partly shown) had a melting point of 225 °C. Take `Cl.Cl.OC1CCN(c2ccccc2)C12CCN(C1CCCCCCC1)CC2` (racemic): the melting point is 173 °C (dec.). The compound `O=C(O)/C=C/C(=O)O.O=C1CCN(c2ccccc2)C12CCN(C1CCCCCCCCC1)CC2` yielded a melting point of 177 °C.

Consider `CC(C)[C@H]1CC[C@@H](N2CCC3(CC2)C(O)CCN3c2ccccc2)CC1.Cl` (mixture of isomers), for which the melting point is greater than 250 °C.

Turning to `Cl.OC1CCN(c2ccccc2)C12CCN(C1Cc3ccccc3C1)CC2` (racemic), the melting point is greater than 250 °C. The value for `CC(C)[C@H]1CC[C@H](N2CCC3(CC2)C(O)CCN3c2ccccc2)CC1.Cl` (mixture of isomers) was greater than 250 °C; that for `Cl.Cl.OC1CCN(c2ccccc2)C12CCN(C1CCCCCCCCC1)CC2` (racemic) was 170 °C (dec.); that for `Cc1cccc2c1CC(N1CCC3(CC1)C(=O)CCN3c1ccccc1)C2.Cl` (racemic) was greater than 250 °C. In turn, `Cl.O=C1CCN(c2ccccc2)C12CCN(C1Cc3ccccc3C1)CC2` showed a melting point greater than 250 °C. The same measure for `O=C(O)/C=C/C(=O)O.O=C1CCN(c2ccccc2)C12CCN(C1CCCCCCCC1)CC2`: 185 °C. The same measure for `CC(C)[C@H]1CC[C@@H](N2CCC3(CC2)[C@@H](O)CCN3c2ccccc2)CC1.Cl`: greater than 250 °C. Take `Cl.Cl.OC1CCN(c2ccccc2)C12CCN(C1CCCCCCCC1)CC2` (racemic): the melting point is 170 °C (dec.). For `COC1CCN(c2ccccc2)C12CCN(C1CCCCCCCCC1)CC2.Cl.Cl` (racemic), the melting point was 170 °C (dec.). For the compound `O=C(O)/C=C/C(=O)O.O=C1CCN(c2ccccc2)C12CCN([C@@H]1CC[C@H]3CCCc4cccc1c43)CC2` (racemic), the melting point stood at 144 °C. For the compound `O=C(O)/C=C/C(=O)O.O=C1CCN(c2ccccc2)C12CCN(C1CCCCCCC1)CC2`, the melting point is 197 °C. In turn, `Cl.OC1CCN(c2ccccc2)C12CCN(C1CCC3CCCCC3C1)CC2` (stereo not shown) registered a melting point greater than 250 °C.

The compound `CC(C)[C@H]1CC[C@H](N2CCC3(CC2)C(=O)CCN3c2ccccc2)CC1.Cl` returned a melting point of 237 to 238 °C. Regarding `Cl.O=C1CCN(c2ccccc2)C12CCN([C@@H]1CC[C@@H]3CCCC[C@@H]3C1)CC2` (racemic), the melting point is 250 to 251 °C (dec.). The same measure for `COC1CCN(c2ccccc2)C12CCN(C1CCCCCCCC1)CC2.O=C(O)/C=C/C(=O)O` (racemic): 196 °C (dec.). Consider `CC(C)[C@H]1CC[C@@H](N2CCC3(CC2)[C@H](O)CCN3c2ccccc2)CC1.Cl`, for which the melting point was greater than 250 °C. The value for `CC(C)[C@H]1CC[C@@H](N2CCC3(CC2)ON=C(c2ccccc2)N3c2ccccc2)CC1.Cl` was 131 °C.
